The values below come from patent publication US12653797B2, “Tablet and method for manufacturing same” (AYUMI PHARMACEUTICAL CORPORATION, priority 2020, dated 2026).

SMILES strings stand for the structures.

The nature of the data set: Measurement of the particle diameter of the acetaminophen active pharmaceutical ingredients (dry laser diffraction). In kind it is physicochemical. The note with it: dispersion air pressure 0.5 bar. The source says:
There may be some differences between manufacturing lots. In addition, the volume-average particle diameter (MV) of the present acetaminophen active pharmaceutical ingredient can be in the range from 100 to 350 μm and may be in the range from 120 to 330 μm. There may be some differences between manufacturing lots. The particle size distribution in the present invention is acquired by evaluation of the volumetric distribution using dry particle diameter measurement by a laser diffraction method (Laser Micron Sizer LMS-2000e (Seishin Enterprise Co., Ltd.)). D50 is the particle diameter at the 50% accumulation of the individual volumes from the small diameter side of the particle size distribution, and is referred to as the median particle diameter. (3) Measurement of the Particle Diameter of the Acetaminophen Active Pharmaceutical Ingredients The acetaminophen active pharmaceutical ingredients were subjected to dry measurement of the particle diameter by a laser diffraction method. A Laser Micron Sizer LMS-2000e (Seishin Enterprise Co., Ltd.) was used for measurement of the particle size distribution. The measurement was carried out at a dispersion compressed air pressure of 0.5 bar.
As to `CC(=O)Nc1ccc(O)cc1` [AA API b, acetaminophen], the D10 is reported as 62 μm, the “D50 (median particle diameter)” value amounted to 191 μm, the D90 came to 353 μm and the “MV (volume-average particle diameter)” value was 202 μm.

As for `CC(=O)Nc1ccc(O)cc1` [AA API f, acetaminophen], the D10 was determined as 42 μm, the “D50 (median particle diameter)” value came to 202 μm, the D90 was determined as 426 μm and the “MV (volume-average particle diameter)” value was 222 μm.

Consider `CC(=O)Nc1ccc(O)cc1` [AA API e, acetaminophen], for which the D10 amounted to 5.7 μm, the “D50 (median particle diameter)” value is 26 μm, the D90 amounted to 116 μm and the “MV (volume-average particle diameter)” value amounted to 46 μm.

Take `CC(=O)Nc1ccc(O)cc1` [AA API c, acetaminophen]: the D10 is recorded as 27 μm, the “D50 (median particle diameter)” value was determined as 147 μm, the D90 was determined as 357 μm and the “MV (volume-average particle diameter)” value is listed as 173 μm.

As to `CC(=O)Nc1ccc(O)cc1` [AA API d, acetaminophen], the D10 amounted to 75 μm, the “D50 (median particle diameter)” value was found to be 419 μm, the D90 was 855 μm and the “MV (volume-average particle diameter)” value was 452 μm.

In the case of `CC(=O)Nc1ccc(O)cc1` [AA API a, acetaminophen], the D10 came out at 73 μm, the “D50 (median particle diameter)” value was found to be 224 μm, the D90 is listed as 404 μm and the “MV (volume-average particle diameter)” value is recorded as 234 μm.

Take `CC(=O)Nc1ccc(O)cc1` [AA API g, acetaminophen]: the D10 worked out at 125 μm, the “D50 (median particle diameter)” value is given as 288 μm, the D90 is recorded as 516 μm and the “MV (volume-average particle diameter)” value was 306 μm.
